In test [1] the test system is O-GlcNAcase in rat PC-12 cells. Nature of the test: Cell-based ELISA for cellular O-GlcNAcase inhibition (O-GlcNAcylated protein, RL-2 antibody). The settings on record: 24 h treatment, O-GlcNAcylated protein detected with RL-2 antibody. The source says: Assay for Determination of Cellular Activity for Compounds that Inhibit O-GlcNAcase Activity
Inhibition of O-GlcNAcase, which removes O-GlcNAc from cellular proteins, results in an increase in the level of O-GlcNAcylated protein in cells. An increase in O-GlcNAcylated protein can be measured by an antibody, such as RL-2, that binds to O-GlcNAcylated protein. The amount of O-GlcNAcylated protein:RL2 antibody interaction can be measured by enzyme linked immunosorbant assay (ELISA) procedures.
A variety of tissue culture cell lines, expressing endogenous levels of O-GlcNAcase, can be utilized; examples include rat PC-12, and human U-87, or SK-N-SH cells. […] If desired, the total protein concentration of samples was determined using 20 μL of the sample using the BCA method.
The ELISA portion of the assay was performed in a black Maxisorp 96-well plate that was coated overnight at 4° C. with 100 μL/well of the cell lysate (1:10 dilution of the lysate with PBS containing protease inhibitors, phosphatase inhibitors, and PMSF). […] The detection reaction was incubated for 15 minutes at room temperature and then read with excitation at 530 nm and emission at 590 nm
The amount of O-GlcNAcylated protein, as detected by the ELISA assay, was plotted for each concentration of test compound using standard curve fitting algorithms for sigmoidal dose response curves. […]
A general note: ELISA stands for enzyme-linked immunosorbent assay.

Another test addresses human O-GlcNAcase (Homo sapiens (Human), UniProt O60502). Put plainly: Fluorescence-based assay for determination of KI values for inhibition of O-GlcNAcase activity. The class given is biochemical. As to conditions: purified human O-GlcNAcase 0.7 nM, 2 mM 4-Methylumbelliferyl N-acetyl-β-D-glucosaminide, pH 7.0, Cheng-Prusoff; read-out: Fluorescence-based hOGA Ki. As for the experimental part: Assay for Determination of KIValues for Inhibition of O-GlcNAcase Activity Experimental procedure for kinetic analyses: Enzymatic reactions were carried out in a reaction containing 50 mM NaH2PO4, 100 mM NaCl and 0.1% BSA (pH 7.0) using 2 mM 4-Methylumbelliferyl N-acetyl-β-D-glucosaminide dihydrate (Sigma M2133) dissolved in ddH2O, as a substrate. The amount of purified human O-GlcNAcase enzyme used in the reaction was 0.7 nM. Test compound of varying concentrations was added to the enzyme prior to initiation of the reaction. The reaction was performed at room temperature in a 96-well plate and was initiated with the addition of substrate. […] The slope of product production was determined for each concentration of compound tested and plotted, using standard curve fitting algorithms for sigmoidal dose response curves. The values for a four parameter logistic curve fit of the data were determined.

Chain of human O-GlcNAcase (O60502 whole entry): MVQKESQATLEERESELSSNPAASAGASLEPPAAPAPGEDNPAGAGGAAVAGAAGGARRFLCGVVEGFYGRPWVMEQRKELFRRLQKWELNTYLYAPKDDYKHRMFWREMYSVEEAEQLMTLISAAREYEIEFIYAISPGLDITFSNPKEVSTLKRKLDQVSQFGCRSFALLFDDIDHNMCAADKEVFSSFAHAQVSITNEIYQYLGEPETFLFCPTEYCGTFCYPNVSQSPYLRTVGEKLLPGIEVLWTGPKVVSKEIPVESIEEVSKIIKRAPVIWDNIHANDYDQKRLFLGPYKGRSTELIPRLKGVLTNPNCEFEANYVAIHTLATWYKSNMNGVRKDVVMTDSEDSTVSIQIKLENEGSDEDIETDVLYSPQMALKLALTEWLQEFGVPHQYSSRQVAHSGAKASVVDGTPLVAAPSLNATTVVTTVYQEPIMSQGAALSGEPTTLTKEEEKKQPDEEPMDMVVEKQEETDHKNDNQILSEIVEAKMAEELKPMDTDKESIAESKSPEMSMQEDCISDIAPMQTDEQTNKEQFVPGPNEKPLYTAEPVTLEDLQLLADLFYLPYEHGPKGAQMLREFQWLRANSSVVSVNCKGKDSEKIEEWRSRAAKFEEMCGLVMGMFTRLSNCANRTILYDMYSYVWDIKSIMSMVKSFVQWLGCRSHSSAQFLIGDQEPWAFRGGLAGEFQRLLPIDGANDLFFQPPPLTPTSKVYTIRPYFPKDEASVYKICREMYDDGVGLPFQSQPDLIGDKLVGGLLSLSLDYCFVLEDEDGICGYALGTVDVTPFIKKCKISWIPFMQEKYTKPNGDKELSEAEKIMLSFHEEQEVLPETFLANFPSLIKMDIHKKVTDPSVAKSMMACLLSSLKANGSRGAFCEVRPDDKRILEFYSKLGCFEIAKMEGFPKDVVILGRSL

For `CNC1=N[C@@H]2[C@H](O)[C@H](O)[C@@H](CO)O[C@@H]2S1` [Example 4, (3aR,5R,6S,7S,7aR)-5-(hydroxymethyl)-2-(methylamino)-5,6,7,7a-tetrahydro-3aH-pyrano[3,2-d]thiazole-6,7-diol], the EC50 (usually the concentration giving half of the maximal effect) in test [1] amounted to 109 nM. As for `CN(C)C1=N[C@@H]2[C@@H](O)[C@@H](O)[C@@H](CO)O[C@@H]2S1` [Example 2, (3aR,5R,6R,7R,7aR)-2-(dimethylamino)-5-(hydroxymethyl)-5,6,7,7a-tetrahydro-3aH-pyrano[3,2-d]thiazole-6,7-diol], the Ki (as a rule, a dissociation constant, usually derived from enzyme kinetics or from competition with a known ligand) at human O-GlcNAcase was determined as 28.6 nM.

The values above are taken from patent publication US9701693B2, “Selective glycosidase inhibitors and uses thereof” (Alectos Therapeutics Inc., priority 2011, dated 2017).
